Experimental data from the supplement of paper PMC10307832.

Assays:
Test in all cases: relative viability (nuclei count vs DMSO), 5 days (fraction); higher = more cells survive
[1] = compound: CC1(C)CNc2cc(NC(=O)c3cccnc3NCc3ccncc3)ccc21 [Motesanib] + Cc1cc(Nc2cc(N3CCN(C)CC3)nc(Sc3ccc(NC(=O)C4CC4)cc3)n2)n[nH]1 [Tozasertib] (partner 0.1 µM)
How it was run: (§1)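 Lung cancer cell lines, seeded in 1536-well plates, were treated the following day by pin tool with a single drug or with five library-drug doses (not always all listed) in √10 steps on top of a fixed anchor-drug dose. Cells were fixed and nuclei stained in one step after 5 days, and nuclei were counted. Relative viability is the nuclei count for treated wells divided by that for vehicle wells, reported as medians of duplicate plates.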

[2] = compound: CC1(C)CNc2cc(NC(=O)c3cccnc3NCc3ccncc3)ccc21 [Motesanib] + O=C(c1cc(Cc2n[nH]c(=O)c3ccccc23)ccc1F)N1CCN(C(=O)C2CC2)CC1 [Olaparib] (partner 8 µM)
How it was run: as §1

[3] = compound: CC1(C)CNc2cc(NC(=O)c3cccnc3NCc3ccncc3)ccc21 [Motesanib] + CS(=O)(=O)CCNCc1ccc(-c2ccc3ncnc(Nc4ccc(OCc5cccc(F)c5)c(Cl)c4)c3c2)o1 [Lapatinib] (partner 2 µM)
How it was run: as §1

[4] = compound: CC1(C)CNc2cc(NC(=O)c3cccnc3NCc3ccncc3)ccc21 [Motesanib] + CC(C)C[C@H](NC(=O)[C@H](Cc1ccccc1)NC(=O)c1cnccn1)B(O)O [Bortezomib] (partner 0.002 µM)
How it was run: as §1

Cell Line | relative viability ([1]; first compound 0.01 µM) | relative viability ([1]; first compound 0.03162 µM) | relative viability ([1]; first compound 0.1 µM) | relative viability ([1]; first compound 0.3162 µM) | relative viability ([1]; first compound 1 µM) | relative viability ([2]; first compound 0.01 µM) | relative viability ([2]; first compound 0.03162 µM) | relative viability ([2]; first compound 0.1 µM) | relative viability ([2]; first compound 0.3162 µM) | relative viability ([2]; first compound 1 µM) | relative viability ([3]; first compound 0.01 µM) | relative viability ([3]; first compound 0.1 µM) | relative viability ([3]; first compound 0.3162 µM) | relative viability ([3]; first compound 1 µM) | relative viability ([4]; first compound 0.01 µM) | relative viability ([4]; first compound 0.1 µM) | relative viability ([4]; first compound 0.3162 µM) | relative viability ([4]; first compound 1 µM) | relative viability ([3]; first compound 0.03162 µM) | relative viability ([4]; first compound 0.03162 µM)
NCI-H1650 | 0.467 | 0.381 | 0.438 | 0.491 | 0.439 | 0.746 | 0.875 | 0.914 | 0.632 | 0.843 | 0.807 | 0.667 | 0.723 | 0.735 | 0.204 | 0.191 | 0.185 | 0.207 | – | –
BEN | 0.505 | 0.529 | 0.627 | 0.547 | 0.543 | 1.02 | 1.04 | 0.938 | 1.18 | 1.43 | 0.591 | 0.723 | 0.714 | 0.789 | 0.696 | 0.869 | 0.861 | 0.935 | 0.715 | 0.793
EMC-BAC-2 | 0.286 | 0.238 | 0.351 | 0.309 | 0.281 | 0.482 | 0.516 | 0.494 | 0.471 | 0.474 | 0.884 | 0.847 | 0.926 | 0.875 | 1.03 | 1.02 | 1.07 | 1.08 | 0.881 | 1.01
NCI-H2170 | 0.64 | 0.679 | 0.709 | 0.832 | 0.659 | 0.694 | 0.656 | 0.599 | 0.61 | 0.684 | 0.243 | 0.228 | 0.262 | 0.293 | – | – | – | – | 0.282 | –
NCI-H1299 | – | – | – | – | – | 0.938 | 0.973 | 1.03 | 1.02 | 0.898 | 0.958 | 0.995 | 1.01 | 0.935 | 1.02 | 1.04 | 1.01 | 1.05 | 0.979 | 1.02
EBC-1 | – | – | – | – | – | 0.732 | 0.674 | 0.694 | 0.729 | 0.783 | 0.268 | 0.223 | 0.211 | 0.223 | 0.637 | 0.557 | 0.537 | 0.559 | 0.206 | 0.56
NCI-H1648 | 0.307 | 0.367 | 0.281 | 0.528 | 0.345 | 0.563 | – | – | 1.1 | 1.06 | – | – | – | – | – | – | – | – | – | –
NCI-H1792 | – | – | – | – | – | 0.544 | 0.444 | 0.491 | 0.444 | 0.486 | 0.881 | 0.843 | 0.926 | 0.945 | 0.931 | 0.976 | 1.04 | 1.03 | 0.854 | 0.737
ChaGo-K-1 | 0.236 | 0.237 | 0.219 | 0.252 | 0.22 | 0.434 | 0.437 | 0.425 | 0.484 | 0.411 | – | – | – | – | – | 0.841 | 0.976 | 1.11 | – | 0.666
LK-2 | 0.177 | 0.163 | – | 0.163 | 0.181 | 0.644 | 0.94 | 0.608 | 0.817 | 0.756 | 0.784 | 0.78 | 1.04 | 0.901 | – | – | – | – | 1.19 | –
NCI-H1944 | 0.258 | 0.229 | 0.233 | 0.236 | 0.284 | 0.444 | 0.4 | 0.432 | 0.46 | 0.428 | 0.944 | 0.842 | 0.836 | 0.859 | – | – | – | – | 0.831 | –
NCI-H1793 | 0.37 | 0.268 | 0.422 | 0.321 | 0.302 | 0.798 | 0.827 | 0.761 | 0.904 | 0.844 | 0.858 | 0.64 | 0.701 | 0.773 | – | – | – | – | 0.636 | –
A549 | – | – | – | – | – | 0.333 | 0.402 | 0.407 | 0.438 | 0.402 | 0.965 | 0.989 | 1.09 | 0.955 | – | – | – | – | 0.975 | –
NCI-H358 | 0.103 | 0.103 | 0.104 | 0.103 | 0.107 | 0.507 | 0.652 | 0.626 | 0.658 | 0.633 | 0.489 | 0.424 | 0.555 | 0.463 | – | – | – | – | 0.472 | –
NCI-H1563 | – | – | – | – | – | – | – | – | – | – | 0.9 | 1.08 | 0.923 | 0.951 | 0.934 | 0.956 | 0.882 | 0.904 | 0.991 | 0.812
NCI-H1395 | 0.777 | 0.779 | 0.816 | 0.757 | 0.773 | 0.442 | 0.496 | 0.455 | 0.493 | 0.468 | 0.925 | 1.04 | 1.08 | 0.959 | – | – | – | – | 1.03 | –
NCI-H522 | 0.629 | 0.546 | 0.611 | 0.566 | 0.595 | 0.691 | 0.674 | 0.594 | 0.677 | 0.876 | – | – | – | – | – | – | – | – | – | –
IA-LM | – | – | – | – | – | 0.757 | 0.834 | 0.722 | 0.855 | 0.822 | 0.88 | 0.703 | 0.645 | 0.729 | 0.879 | 0.816 | 0.819 | 0.783 | 0.723 | 0.704
NCI-H1703 | – | – | – | – | – | 0.442 | 0.305 | 0.318 | 0.223 | 0.232 | 1.05 | 0.526 | 0.334 | 0.323 | 0.25 | 0.228 | 0.192 | 0.265 | 0.679 | 0.264
NCI-H441 | 0.675 | 0.518 | 0.66 | 0.543 | 0.578 | 0.542 | 0.452 | 0.436 | 0.627 | 0.496 | – | – | – | – | 0.542 | 0.434 | 0.644 | 0.583 | – | 0.47
LCLC-103H | 0.489 | 0.341 | 0.47 | 0.442 | 0.551 | 0.777 | 0.737 | 0.758 | 0.807 | 0.742 | – | – | – | – | – | 1.16 | 1.03 | 1.07 | – | 1.02
SW 900 | 0.599 | 0.524 | 0.66 | 0.51 | 0.638 | 0.904 | 0.677 | 0.811 | 0.9 | 0.917 | – | – | – | – | – | – | – | – | – | –
